Key:
NCI-H322M [1] = test: NCI 60 cell line five dose, Non-Small Cell Lung Cancer
PC-3 = test: NCI 60 cell line five dose, Prostate Cancer
SK-MEL-28 = test: NCI 60 cell line five dose, Melanoma; settings: SK-MEL-28
SW-620 = test: NCI 60 cell line five dose, Colon Cancer
K-562 = test: NCI 60 cell line five dose, Leukemia
MDA-MB-468 = test: NCI 60 cell line five dose, Breast Cancer
NCI-H322M [2] = tested on: NCI-H322M
HT29 = test: NCI 60 cell line five dose, Colon Cancer
786-0 = test: NCI 60 cell line five dose, Renal Cancer
M14 = test: NCI 60 cell line five dose, Melanoma
SK-MEL-2 = test: NCI 60 cell line five dose, Melanoma
MCF7 = test: NCI 60 cell line five dose, Breast Cancer
SK-OV-3 = test: NCI 60 cell line five dose, Ovarian Cancer
M9ENL AML cell lines = settings: 10 μM; M9ENL cell line; FIG. 4
UO-31 = test: NCI 60 cell line five dose, Renal Cancer
HS 578T = test: NCI 60 cell line five dose, Breast Cancer; settings: HS 578T
UACC-62 = test: NCI 60 cell line five dose, Melanoma
SF-268 = test: NCI 60 cell line five dose, CNS Cancer
HCT-15 = test: NCI 60 cell line five dose, Colon Cancer
NCI-H522 = test: NCI 60 cell line five dose, Non-Small Cell Lung Cancer
DU-145 = test: NCI 60 cell line five dose, Prostate Cancer
SNB-75 = test: NCI 60 cell line five dose, CNS Cancer
RXF 393 = test: NCI 60 cell line five dose, Renal Cancer

## C=C1C(=O)O[C@H]2[C@H]1CC/C(COC(=O)CCC(=O)NCCCCCCCCCNC(=O)CCC(=O)OC/C1=C/CC[C@@]3(C)O[C@H]3[C@H]3OC(=O)C(=C)[C@@H]3CC1)=C\CC[C@@]1(C)O[C@@H]21 [JVM 2-92, bis(((1aR,7aS,10aS,10bS,E)-1a-Methyl-8-methylene-9-oxo-1a,2,3,6,7,7a,8,9,10a,10b-decahydrooxireno[2′,3′:9,10]cyclodeca[1,2-b]furan-5-yl)methyl)4,4′-(nonane-1,9-diylbis(azanediyl))bis (4-oxobutanoate)]
NCI-H322M [1]
  GI50: 16300 nM
  TGI: 31600 nM
PC-3
  GI50: 2530 nM
  TGI: 7310 nM
SK-MEL-28
  GI50: 1470 nM
  TGI: 3030 nM
SW-620
  GI50: 540 nM
  TGI: 2070 nM
K-562
  GI50: 450 nM
  TGI: 3210 nM
MDA-MB-468
  GI50: 980 nM
  TGI: 2640 nM
HL-60(TB)
  GI50: 440 nM
  TGI: 2130 nM
HL-60(TB); read-out: LC50
  CC50: > 100000 nM
NCI-H322M [2]
  CC50: 61300 nM
HT29
  GI50: 1330 nM
  TGI: 2750 nM
SNB-19
  CC50: > 100000 nM
SNB-19; SNB-19
  GI50: 3380 nM
  TGI: 16300 nM
786-0
  GI50: 1490 nM
  TGI: 3000 nM
M14
  GI50: 1650 nM
  TGI: 3640 nM
SK-MEL-2
  GI50: 2120 nM
  TGI: 4150 nM
MCF7
  GI50: 420 nM
  TGI: 1850 nM
SK-OV-3
  GI50: 5800 nM
  TGI: 19200 nM
M9ENL AML cell lines
  result compared to parthenolide: promising result
UO-31
  GI50: 3900 nM
  TGI: 16100 nM
HS 578T
  GI50: 2990 nM
  TGI: 24900 nM
UACC-62
  GI50: 1690 nM
  TGI: 3780 nM
SF-268
  GI50: 2920 nM
  TGI: 10100 nM
HCT-15
  GI50: 2630 nM
  TGI: 11900 nM
NCI-H522
  GI50: 420 nM
  TGI: 1640 nM
DU-145
  GI50: 1750 nM
  TGI: 3180 nM
SNB-75
  GI50: 1470 nM
  TGI: 4350 nM
RXF 393
  GI50: 1010 nM
  TGI: 2500 nM

Reference: patent US10118935B2, “Melampomagnolide B dimers” (priority 2014, dated 2018)
